Assay results as given in publication PMC12700550, “DLL4^+ neutrophils promote Notch1-mediated endothelial PANoptosis to exacerbate acute lung injury in sepsis” (The Journal of Clinical Investigation, 2025).
“And” between values parts separate entries of the source, which are not always exact repeats. Identical values can stand only once.

Legend:
p-MLKL = assay: p-MLKL/MLKL (necroptosis) in PVECs cocultured with neutrophils, Western blot; assay type: cell-based, mouse; conditions: for p-MLKL/MLKL (Figure 4I): 10 μM peptide, 16 h, individual replicates
Experimental: (§1) Wild-type PVECs (5 × 10^5) were cocultured with sorted DLL4^+ neutrophils (5 × 10^5) or DLL4^– neutrophils (5 × 10^5) and then treated with different dosages of peptides or 10 μM DAPT (Thermo Fisher Scientific), 10 μM NDI (GenScript), or 10 μM NDI scramble (GenScript). Notch1-knockdown PVECs (5 × 10^5) were cocultured with sorted DLL4^+ neutrophils (5 × 10^5). After 16 hours, neutrophils were washed away by PBS, and PVECs were collected for further experiments. Cell viability was evaluated by propidium iodide staining using the FITC Annexin V Apoptosis Detection Kit I (catalog 556547, BD Pharmingen). Cell death was quantified as the percentage of propidium iodide–positive cells by flow cytometry.
PVECs and lung tissue were collected in previous steps. Whole-cell proteins were extracted, and the protein concentration was measured using an ABC protein assay kit (catalog 5000002, Bio-Rad). Proteins were separated using NuPAGE 4%–12% Bis-Tris gels (Invitrogen), transferred to PVDF membranes, and immunoblotted with the antibodies indicated in the figure legends according to the manufacturer’s recommendations. The ZBP1 antibody (catalog PA5-20455; 1:1,000) used in this study was obtained from Thermo Fisher Scientific, and the c-GSDMD (catalog 10137S; 1:250), GSDMD (catalog 39754S; 1:1000), c-caspase-3 (catalog 9661L; 1:250), caspase-3 (catalog 9662S; 1:1,000), p-MLKL (catalog 37333S; 1:250), MLKL (catalog 37705S; 1:1,000), N1ICD (c-Notch1) (catalog 4147S; 1:250), and Notch1 (catalog 3608S; 1:1,000) antibodies were obtained from Cell Signaling Technology. GAPDH (catalog 60004-1-Ig; 1:10,000) and β-actin (catalog A5441, Sigma-Aldrich; 1:5,000) were obtained from ProteinTech. After the blots were incubated with primary antibodies, the membranes were washed 3 times, and the blots were subsequently incubated with the corresponding fluorescent secondary antibody (LI-COR). Bands were detected using an Odyssey FC Dual-Mode Imaging system 2800 (LI-COR).

ZBP1 [1] = assay: ZBP1 mRNA in PVECs cocultured with neutrophils, RT-PCR (DAPT, NDI, peptides 1–5); assay type: cell-based, mouse; set-up: key to ZBP1 mRNA expression (Figure 4E): fold change in mRNA vs sham group; conditions: for ZBP1 mRNA expression (Figure 4E): 10 μM peptide, relative mRNA, β-actin normalized, individual replicates
Experimental: Immortalized mouse (Mus musculus) lung endothelial cells with polyoma middle T (PVECs) were purchased from Applied Biological Materials Inc. (ABM) and grown in 1:1 PriGrow VI Medium and PriGrow IV Medium (ABM).
as §1
mRNA was extracted from lung tissues with TRIzol reagent (Invitrogen, Thermo Fisher Scientific). An equal amount ([…]) of mRNA was reverse-transcribed into cDNA using the reverse transcriptase enzyme (Invitrogen, Thermo Fisher Scientific). qPCR was performed from the diluted cDNA templates with forward and reverse primers (Supplemental Table 4) and SYBR Green PCR Master Mix (Applied Biosystems, Thermo Fisher Scientific) using an Applied Biosystems 7300 real-time PCR machine. Mouse β-actin served as an internal control gene for normalization. Relative expression of mRNA was represented as fold change in comparison with the sham group.

ZBP1 [2] = assay: ZBP1 mRNA in lungs of CLP mice, RT-PCR; assay type: in vivo, mouse; conditions: 20 h; for lung ZBP1 mRNA (Figure 5A): 10 mg/kg NDI retro-orbital, vs sham, individual mice, 10 mg/kg
Experimental: Sepsis was induced in mice by cecal ligation and puncture (CLP) as described previously ([45], [46]). Mice were anesthetized with isoflurane to a surgical plane and placed in a supine position. CLP was performed through a midline laparotomy. The abdomen was shaved and disinfected. Through a 2 cm midline incision, the cecum was exposed and then ligated with a 4-0 silk suture 1 cm proximal from the distal cecal extremity. For 20-hour CLP experiments, the cecum was punctured twice with a 22-gauge needle. A small amount of cecal content was extruded through both holes, and the ligated cecum was returned to the peritoneal cavity. The wound was closed in layers. For 10-day sepsis survival studies, the cecum was punctured once with a 22-gauge needle. A small amount of cecal content was extruded. Mice were allocated to the vehicle and adoptive transfer of DLL4^+ neutrophils or DLL4^– neutrophils groups. Adoptive transfer mice received a retro-orbital injection of 1 × 10^6 cells per mouse DLL4^+ neutrophils or DLL4^– neutrophils in […] phosphate-buffered saline (PBS) immediately after abdominal closure in both the 20-hour experiments and the survival study. Vehicle groups received an equivalent volume of PBS, while treatment groups received NDI 10 mg/kg in […] PBS via retro-orbital injection after CLP. This dose was chosen primarily on the basis of our laboratory’s prior experience, we have consistently used this dose in mouse CLP models with reproducible efficacy and without observable toxicity ([39], [44]). Sham-operated animals underwent a laparotomy without CLP. After closure, the mice received a subcutaneous injection of 0.5 mL of normal saline to overcome surgery-induced dehydration. For 20-hour experiments, animals were not injected with antibiotics; however, for survival studies, animals were given 0.5 mg per kg body weight imipenem (lot 4D21K05, WG Critical Care LLC) subcutaneously in 0.5 mL saline once at the end of CLP. All mice were subcutaneously injected with a single dose of 0.1 mg/kg buprenorphine after CLP. […]

TNF-α = assay: Serum TNF-α, CLP mice, ELISA; assay type: in vivo, mouse; conditions: DLL4^+ neutrophil-injected CLP mice, 10 mg/kg, 20 h
Experimental: Sepsis was induced in mice by cecal ligation and puncture (CLP) as described previously ([45], [46]). Mice were anesthetized with isoflurane to a surgical plane and placed in a supine position. CLP was performed through a midline laparotomy. The abdomen was shaved and disinfected. Through a 2 cm midline incision, the cecum was exposed and then ligated with a 4-0 silk suture 1 cm proximal from the distal cecal extremity. For 20-hour CLP experiments, the cecum was punctured twice with a 22-gauge needle. A small amount of cecal content was extruded through both holes, and the ligated cecum was returned to the peritoneal cavity. The wound was closed in layers. For 10-day sepsis survival studies, the cecum was punctured once with a 22-gauge needle. A small amount of cecal content was extruded. Mice were allocated to the vehicle and adoptive transfer of DLL4^+ neutrophils or DLL4^– neutrophils groups. […]
Blood was collected by heart puncture and centrifuged at 1,500g and 4°C for 10 minutes, and the plasma was separated to assess cytokine levels using enzyme-linked immunosorbent assay (ELISA) kits (BD Biosciences). The plasma TNF-α (catalog 558534) and IL-6 (catalog 555240) levels were measured by ELISA.

[3] = 10 μM NDI, DLL4^+ neutrophil coculture

For ECAGSPCHNGGTCEDGI [NDI], the “effect on p-MLKL” value (p-MLKL; [3]) was “significantly reduced these markers of PANoptosis”, the “p-MLKL/MLKL (Figure 4I)” value (p-MLKL; DLL4^+ neutrophil coculture) was 1.115 and 1.398 and 1.246 and 1.299 and 0.9429 and 1.577 and 2.352 and the “p-MLKL/MLKL (Figure 4I)” value (p-MLKL; DLL4^– neutrophil coculture) was 0.4818 and 0.8655 and 0.6799 and 0.9484. For the same sequence, the “effect on ZBP1 mRNA” value (ZBP1 [1]; [3]) was “significantly attenuated by NDI treatment”, the “ZBP1 mRNA expression (Figure 4E)” value (ZBP1 [1]; DLL4^+ neutrophil coculture, 16 h) was 1.415 and 1.669 and 3.8174 and 1.677 and 1.56 and 2.849 and 9.163 and 6.321 and 1.561 and 1.421 and 1.212 and 1.283 and 1.413 and 1.3501 and the “ZBP1 mRNA expression (Figure 4E)” value (ZBP1 [1]; DLL4^– neutrophil coculture, 16 h) was 1.952 and 2.343 and 4.227 and 9.382 and 4.404 and 4.151 and 12.0095 and 11.4783 and 1.027 and 3.606 and 3.156 and 1.889 and 1.85 and 3.13. The “effect on ZBP1 mRNA” value (ZBP1 [1]; PVECs cocultured with DLL4^+ neutrophils, varying concentrations of peptide, 16 h, n=10/group) was “significantly reduced ZBP1 expression”, the “inhibition of DLL4^+ neutrophil–induced PANoptosis in PVECs, by reduced ZBP1 expression” value (ZBP1 [1]; among the tested peptides) was “most effectively inhibited” and the “effective concentration for ZBP1 inhibition” value (ZBP1 [1]; dose-response, PVECs cocultured with DLL4^+ neutrophils) was 10 µM. The “lung ZBP1 mRNA (Figure 5A)” value (ZBP1 [2]; DLL4^+ neutrophils i.v. + CLP) was 2.489 fold change and 2.951 fold change and 0.6537 fold change and 1.296 fold change and 1.101 fold change and 2.543 fold change and 1.904 fold change and 2.345 fold change and 0.6068 fold change and 1.613 fold change and 2.244 fold change and 2.348 fold change and 0.6906 fold change, the “effect on lung ZBP1 mRNA” value (ZBP1 [2]; DLL4^+ neutrophils/sepsis, 10 mg/kg NDI) was “effectively decreased ZBP1 expression” and the “lung ZBP1 mRNA (Figure 5A)” value (ZBP1 [2]; DLL4^– neutrophils + CLP) was 3.779 fold change and 3.701 fold change and 3.374 fold change and 2.776 fold change and 2.9508 fold change and 2.383 fold change and 4.109 fold change and 2.422 fold change. For the same sequence, the “effect on serum TNF-α” value (TNF-α) was “significantly reduced the serum levels of hepatic and cell injury markers and proinflammatory cytokines”.
